According to PubChem BioAssay (NCI):
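Cells were grown in 96-well plates and exposed to each compound for 48 hours at five concentrations; endpoints were interpolated linearly between bracketing concentrations, or set to the highest concentration if not reached. TGI is the concentration that stops growth completely.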

Key:
Test in all cases: DTP human tumour cell line panel, 48 h
DMS 114 small cell lung = system: DMS 114 small cell lung
LOX IMVI melanoma = system: LOX IMVI melanoma
SF-268 CNS = system: SF-268 CNS
DMS 273 small cell lung = system: DMS 273 small cell lung
RPMI-8226 leukemia = system: RPMI-8226 leukemia
COLO 205 colon = system: COLO 205 colon
LXFL 529 NSCLC = system: LXFL 529 NSCLC
HCC-2998 colon = system: HCC-2998 colon
ACHN renal = system: ACHN renal
OVCAR-4 ovarian = system: OVCAR-4 ovarian
CCRF-CEM leukemia = system: CCRF-CEM leukemia
KM20L2 colon = system: KM20L2 colon
SF-295 CNS = system: SF-295 CNS
SNB-75 CNS = system: SNB-75 CNS
K-562 leukemia = system: K-562 leukemia
HOP-62 NSCLC = system: HOP-62 NSCLC
UACC-62 melanoma = system: UACC-62 melanoma
MALME-3M melanoma = system: MALME-3M melanoma
M14 melanoma = system: M14 melanoma
UO-31 renal = system: UO-31 renal
NCI-H23 lung = system: NCI-H23 lung
UACC-257 melanoma = system: UACC-257 melanoma
XF 498 CNS = system: XF 498 CNS
TK-10 renal = system: TK-10 renal
HL-60(TB) leukemia = system: HL-60(TB) leukemia
RXF-631 renal = system: RXF-631 renal
U251 CNS = system: U251 CNS
786-0 renal = system: 786-0 renal
RXF 393 renal = system: RXF 393 renal
IGROV1 ovarian = system: IGROV1 ovarian
SF-539 CNS = system: SF-539 CNS
KM12 colon = system: KM12 colon
OVCAR-5 ovarian = system: OVCAR-5 ovarian
NCI-H226 lung = system: NCI-H226 lung
NCI-H460 lung = system: NCI-H460 lung
SN12C renal = system: SN12C renal
A549 NSCLC = system: A549 NSCLC
SW-620 colon = system: SW-620 colon
MOLT-4 leukemia = system: MOLT-4 leukemia
OVCAR-3 ovarian = system: OVCAR-3 ovarian
SK-OV-3 ovarian = system: SK-OV-3 ovarian
M19-MEL melanoma = system: M19-MEL melanoma
SNB-19 CNS = system: SNB-19 CNS
HT29 colon = system: HT29 colon
DLD-1 colon = system: DLD-1 colon
OVCAR-8 ovarian = system: OVCAR-8 ovarian
CAKI-1 renal = system: CAKI-1 renal
SK-MEL-28 melanoma = system: SK-MEL-28 melanoma
SK-MEL-2 melanoma = system: SK-MEL-2 melanoma
EKVX NSCLC = system: EKVX NSCLC
SR leukemia = system: SR leukemia
NCI-H522 lung = system: NCI-H522 lung
HCT-116 colon = system: HCT-116 colon
HCT-15 colon = system: HCT-15 colon
HOP-92 NSCLC = system: HOP-92 NSCLC
SNB-78 CNS = system: SNB-78 CNS
SK-MEL-5 melanoma = system: SK-MEL-5 melanoma
A498 renal = system: A498 renal
HOP-18 NSCLC = system: HOP-18 NSCLC

Measured: TGI

O=S(=O)(c1ccccc1)C1CN2OC1(S(=O)(=O)c1ccccc1)CC21CCCCC1 (stereo unspecified)
not listed: HOP-92 NSCLC | SNB-78 CNS | SK-MEL-5 melanoma | A498 renal | HOP-18 NSCLC
> 100 µM: all other assays above

CC1(C)C(=NN=C(N)N)C(C)(C)C1=NN=C(N)N
not listed: CCRF-CEM leukemia | HOP-62 NSCLC | SK-MEL-2 melanoma | EKVX NSCLC | A498 renal | HOP-18 NSCLC
> 100 µM: all other assays above

O=c1c(C(=Nc2ccccc2)c2ccccc2)c[nH]n1-c1ccccc1
72.8 µM: RXF 393 renal
not listed: HOP-62 NSCLC | NCI-H226 lung | OVCAR-3 ovarian | M19-MEL melanoma | SR leukemia | HCT-116 colon | HOP-92 NSCLC | HOP-18 NSCLC
> 100 µM: all other assays above

N#Cc1ccc(Sc2ccccc2)cc1C#N
43.3 µM: CCRF-CEM leukemia
41.7 µM: LOX IMVI melanoma
46.6 µM: NCI-H460 lung
40.6 µM: HCT-116 colon
30.6 µM: HCT-15 colon
47.4 µM: SF-539 CNS
39.9 µM: SR leukemia
52.1 µM: SNB-75 CNS
71 µM: 786-0 renal
53.9 µM: RPMI-8226 leukemia
74.4 µM: HOP-92 NSCLC
51.6 µM: SF-268 CNS
58 µM: XF 498 CNS
36.6 µM: DMS 273 small cell lung
81 µM: RXF 393 renal
not listed: DMS 114 small cell lung | SW-620 colon | SNB-78 CNS
> 100 µM: all other assays above

CCc1c(C)[nH]c2c1/C(=N/N=C1\CCCc3[nH]c(C)c(CC)c31)CCC2
33.1 µM: NCI-H522 lung
39.5 µM: UO-31 renal
54.6 µM: LOX IMVI melanoma
78.4 µM: SK-OV-3 ovarian
78.2 µM: OVCAR-8 ovarian
70.5 µM: RXF 393 renal
35.9 µM: SK-MEL-28 melanoma
35.4 µM: U251 CNS
51.5 µM: HOP-92 NSCLC
41.6 µM: COLO 205 colon
43.2 µM: NCI-H460 lung
36.4 µM: HL-60(TB) leukemia
41.2 µM: M14 melanoma
75 µM: A498 renal
31.3 µM: KM12 colon
50.1 µM: SNB-75 CNS
50.5 µM: HCT-116 colon
81.3 µM: HT29 colon
62.7 µM: NCI-H23 lung
78 µM: SW-620 colon
27.6 µM: SK-MEL-5 melanoma
30.2 µM: LXFL 529 NSCLC
34.4 µM: XF 498 CNS
69.2 µM: ACHN renal
52 µM: OVCAR-4 ovarian
81.5 µM: SF-539 CNS
76.4 µM: CCRF-CEM leukemia
46.6 µM: SF-295 CNS
31.9 µM: UACC-257 melanoma
36.7 µM: DMS 273 small cell lung
48.3 µM: M19-MEL melanoma
33.9 µM: RPMI-8226 leukemia
34.1 µM: DMS 114 small cell lung
39.4 µM: MOLT-4 leukemia
39.7 µM: NCI-H226 lung | OVCAR-3 ovarian
48.8 µM: UACC-62 melanoma
61.9 µM: SF-268 CNS
83.6 µM: IGROV1 ovarian
52.5 µM: HCT-15 colon
85.8 µM: SNB-78 CNS
not listed: SR leukemia | HOP-18 NSCLC
> 100 µM: all other assays above
